In BindingDB's records for doi:10.1021/jm0010623 (Bayer, 2001) one finds IC50 data, which are given here for four compounds.

Assay [1] has as its target DNA gyrase (Micrococcus luteus). As to the kind of experiment: Antibacterial activity against Micrococcus luteus DNA gyrase.
Assay [2] has as its target DNA gyrase (Escherichia coli). Description: Antibacterial activity against Escherichia coli DNA gyrase.
For assay [3], the target named is DNA topoisomerase I (Escherichia coli). Description: Antibacterial activity against Escherichia coli DNA topoisomerase I.

Consider `COC(=O)c1c(Br)c(OC)cc(O)c1CSC[C@@H](Nc1nc(-c2ccc([N+](=O)[O-])cc2)cs1)C1=NOCCO1`, for which half-maximal inhibition in assay [1] (IC50) required 62500 nM. That is a double-digit micromolar value.
Regarding `COC(=O)c1c(Br)c(OC)cc(O)c1CSC[C@H](Nc1nc(-c2ccc([N+](=O)[O-])cc2)cs1)C(=O)OC` [BAY-507950], the 50% inhibitory concentration (IC50) (commonly the concentration at which inhibition is half-maximal) is 489 nM in assay [2], 326 nM in assay [1] and 195000 nM in assay [3].
In the case of `COC(=O)c1c(Br)c(OC)cc(O)c1CSC[C@H](Nc1nc(-c2ccc([N+](=O)[O-])cc2)cs1)C1=NOCCO1` [BAY-507952], the half-inhibitory concentration (IC50) was 781 nM in assay [2], 625 nM in assay [1] and 187000 nM in assay [3].
Turning to `COC(=O)c1c(Br)c(OC)cc(O)c1CSC[C@H](Nc1nc(-c2ccc([N+](=O)[O-])cc2)cs1)c1nc(C)no1` [Ro-616653], the half-maximal inhibitory concentration (IC50) in assay [2] was 157 nM; in assay [1], 157 nM; in assay [3], 188000 nM.
